Our source for the IC50 values is US10167276B2, “Compounds and methods for inhibiting JAK” (Dizal (Jiangsu) Pharmaceutical Co., Ltd., priority 2015, dated 2019).

This assay has as its system STAT3 phosphorylation in NCI-H1975 cells. Nature of the assay: Cellular pSTAT3 assay in NCI-H1975 cells. In kind it is cell-based. Particulars: Homo sapiens, 2 hours with compound. The protocol: NCI-H1975 cells were plated onto Costar #3701 96 or 384 well tissue-culture treated plates at 5,000 cells/well in 30 uL medium (RPMI, 10% FBS, supplemented with L-glutamine) and incubated overnight at 37° C. in 5% CO2. Phospho STAT3 signal was quantitated utilizing Cell Signaling Technology #7146B Pathscan […] STAT3 antibody pair kit, following manufacturer's instructions.
Cells were dosed with compound and incubated at 37° C. in 5% CO2 for 2 hours, after which medium and compound were aspirated and cells lysed with 35 uL cold 1×Cell Signaling Lysis buffer and chilled at 4° C. for 1-2 hours. Lysate was incubated on STAT3 capture plates at 4° C. overnight, washed 3× with Tris-Buffered Saline with 0.05% Tween® 20 (TBST), then […] STAT3 detection antibody was applied for 2 hours. Following washing with TBST (3×), HRP-secondary antibody was applied for 2 hours. After additional washing, signal was detected using TMB and Stop solution and read at 450 nm using Tecan Infinite M100.
In general, IC50 refers to the point on the concentration scale where inhibition reaches its midpoint. As for `CCOc1nn(C)cc1Nc1ncc(C)c(-c2c[nH]c3c(NC(=O)[C@@H](C)N4CCN(C)C[C@H]4C)cccc23)n1` [Example 23, (2R)-2-[(2R)-2,4-dimethylpiperazin-1-yl]-N-(3-{2-[(3-ethoxy-1-methyl-1H-pyrazol-4-yl)amino]-5-methylpyrimidin-4-yl}-1H-indol-7-yl)propanamide], the IC50 was determined as 410 nM.
On to `CCOc1nn(C)cc1Nc1ncc(C)c(-c2c[nH]c3c(NC(=O)[C@@H](C)N4CCN(C)[C@H](C)C4)cccc23)n1` [Example 24, (2R)-2-[(3R)-3,4-dimethylpiperazin-1-yl]-N-(3-{2-[(3-ethoxy-1-methyl-1H-pyrazol-4-yl)amino]-5-methylpyrimidin-4-yl}-1H-indol-7-yl)propanamide], for which the IC50 is 370 nM.
On to `COc1nn(C)cc1Nc1ncc(F)c(-c2c[nH]c3c(NC(=O)[C@@H](C)N4CCN(C)CC4)cccc23)n1` [Example 25], for which the IC50 came out at 115 nM.
In the case of `COc1nn(C)cc1Nc1nccc(-c2c[nH]c3c(NC(=O)[C@@H](C)N4CCN(C)[C@@H](C)C4)cccc23)n1` [Example 26, (2R)-2-[(3S)-3,4-dimethylpiperazin-1-yl]-N-(3-{2-[(3-methoxy-1-methyl-1H-pyrazol-4-yl)amino]pyrimidin-4-yl}-1H-indol-7-yl)propanamide], the IC50 is 256 nM.
Then `COCCN1CCN([C@H](C)C(=O)Nc2cccc3c(-c4ccnc(Nc5cn(C)nc5OC)n4)c[nH]c23)CC1` [Example 27, (2R)-2-[4-(2-methoxyethyl)piperazin-1-yl]-N-(3-{2-[(3-methoxy-1-methyl-1H-pyrazol-4-yl)amino]pyrimidin-4-yl}-1H-indol-7-yl)propanamide], with 609 nM.
As to `CCN1CCN([C@H](C)C(=O)Nc2cccc3c(-c4ccnc(Nc5cn(C)nc5OC)n4)c[nH]c23)CC1` [Example 28, (2R)-2-(4-ethylpiperazin-1-yl)-N-(3-{2-[(3-methoxy-1-methyl-1H-pyrazol-4-yl)amino]pyrimidin-4-yl}-1H-indol-7-yl)propanamide], the IC50 turned out to be 100 nM.
`COc1nn(C)cc1Nc1nccc(-c2c[nH]c3c(NC(=O)[C@@H](C)N4CCN(C)C[C@H]4C)cccc23)n1` [Example 29, (2R)-2-[(2R)-2,4-dimethylpiperazin-1-yl]-N-(3-{2-[(3-methoxy-1-methyl-1H-pyrazol-4-yl)amino]pyrimidin-4-yl}-1H-indol-7-yl)propanamide]: the IC50 was 227 nM.
Consider `COc1nn(C)cc1Nc1nccc(-c2c[nH]c3c(NC(=O)[C@@H](C)N4CCN(C)[C@H](C)C4)cccc23)n1` [Example 30, (2R)-2-[(3R)-3,4-dimethylpiperazin-1-yl]-N-(3-{2-[(3-methoxy-1-methyl-1H-pyrazol-4-yl)amino]pyrimidin-4-yl}-1H-indol-7-yl)propanamide], for which the IC50 was determined as 359 nM.
To `CCOc1nn(C)cc1Nc1ncc(C)c(-c2c[nH]c3c(NC(=O)[C@@H](C)N4CCN(C)[C@@H](C)C4)cccc23)n1` [Example 31a, (2R)-2-[(3S)-3,4-dimethylpiperazin-1-yl]-N-(3-{2-[(3-ethoxy-1-methyl-1H-pyrazol-4-yl)amino]-5-methylpyrimidin-4-yl}-1H-indol-7-yl)propanamide] belongs 153 nM; to `CCOc1nn(C)cc1Nc1ncc(C)c(-c2c[nH]c3c(NC(=O)[C@H](C)N4CCN(C)[C@@H](C)C4)cccc23)n1` [Example 31b, (2S)-2-[(3S)-3,4-dimethylpiperazin-1-yl]-N-(3-{2-[(3-ethoxy-1-methyl-1H-pyrazol-4-yl)amino]-5-methylpyrimidin-4-yl}-1H-indol-7-yl)propanamide], 330 nM; to `COc1nn(C)cc1Nc1ncc(C)c(-c2c[nH]c3c(NC(=O)[C@H](C)N4CCN(C)CC4)cccc23)n1` [Example 33, (2S)-N-{3-[2-[(3-methoxy-1-methyl-1H-pyrazol-4-yl)amino]-5-methylpyrimidin-4-yl}-1H-indol-7-yl)-2-(4-methylpiperaizn-1-yl)propanamide], 308 nM.
Take `COc1nn(C)cc1Nc1ncc(C)c(-c2c[nH]c3c(NC(=O)[C@@H](C)N4CCN(C)CC4)cccc23)n1` [Example 34, (2R)-N-(3-{2-[(3-Methoxy-1-methyl-1H-pyrazol-4-yl)amino]-5-methylpyrimidin-4-yl}-1H-indol-7-yl)-2-(4-methylpiperazin-1-yl)propanamide]: the IC50 turned out to be 128 nM.
Then `CCOc1nn(C)cc1Nc1ncc(C)c(-c2c[nH]c3c(NC(=O)[C@@H](C)N4CCN(C)CC4)cccc23)n1` [Example 35, (2R)-N-(3-{2-[(3-ethoxy-1-methyl-1H-pyrazol-4-yl)amino]-5-methylpyrimidin-4-yl}-1H-indol-7-yl)-2-(4-methylpiperazin-1-yl)propanamide], with 153 nM; and `COc1nn(C)cc1Nc1ncc(Cl)c(-c2c[nH]c3c(NC(=O)[C@@H](C)N4CCN(C)CC4)cccc23)n1` [Example 36, (2R)-N-(3-{5-chloro-2-[(3-methoxy-1-methyl-1H-pyrazol-4-yl)amino]pyrimidin-4-yl}-1H-indol-7-yl)-2-(4-methylpiperazin-1-yl)propanamide], with 57.9 nM.
For the molecule `COc1nn(C)cc1Nc1ncc(Br)c(-c2c[nH]c3c(NC(=O)[C@@H](C)N4CCN(C)CC4)cccc23)n1` [Example 37, (2R)-N-(3-{5-bromo-2-[(3-methoxy-1-methyl-1H-pyrazol-4-yl)amino]pyrimidin-4-yl}-1H-indol-7-yl)-2-(4-methylpiperazin-1-yl)propanamide], the IC50 is 94.2 nM.
Turning to `COc1nn(C)cc1Nc1ncc(C)c(-c2c[nH]c3c(NC(=O)[C@@H](C)N4CCN(C)C[C@H]4C)cccc23)n1` [Example 38, (2R)-2-[(2R)-2,4-dimethylpiperazin-1-yl]-N-(3-{2-[(3-methoxy-1-methyl-1H-pyrazol-4-yl)amino]-5-methylpyrimidin-4-yl}-1H-indol-7-yl)propanamide], the 50% inhibitory concentration (IC50) came to 108 nM.
For the molecule `CCOc1nn(C)cc1Nc1ncc(F)c(-c2c[nH]c3c(NC(=O)[C@@H](C)N4CCN(C)CC4)cccc23)n1` [Example 39, (2R)-N-(3-{2-[(3-ethoxy-1-methyl-1H-pyrazol-4-yl)amino]-5-fluoropyrimidin-4-yl}-1H-indol-7-yl)-2-(4-methylpiperazin-1-yl)propanamide], the IC50 is 191 nM.
For `CCOc1nn(C)cc1Nc1ncc(Cl)c(-c2c[nH]c3c(NC(=O)[C@@H](C)N4CCN(C)CC4)cccc23)n1` [Example 40, (2R)-N-(3-{5-chloro-2-[(3-ethoxy-1-methyl-1H-pyrazol-4-yl)amino]pyrimidin-4-yl}-1H-indol-7-yl)-2-(4-methylpiperazin-1-yl)propanamide], the half-maximal inhibitory concentration (IC50) was determined as 160 nM.
With `Cc1cnc(Nc2cn(C)nc2C)nc1-c1c[nH]c2c(NC(=O)[C@@H](C)N3CCN(C)CC3)cccc12` [Example 41, (2R)-N-(3-{2-[(1,3-dimethyl-1H-pyrazol-4-yl)amino]-5-methylpyrimidin-4-yl}-1H-indol-7-yl)-2-(4-methylpiperazin-1-yl)propanamide], the IC50 stood at 92.3 nM.
To `Cc1cnc(Nc2cn(C)nc2C)nc1-c1c[nH]c2c(NC(=O)[C@H](C)N3CCN(C)CC3)cccc12` [Example 42, (2S)-N-(3-{2-[(1,3-dimethyl-1H-pyrazol-4-yl)amino]-5-methylpyrimidin-4-yl}-1H-indol-7-yl)-2-(4-methylpiperazin-1-yl)propanamide] belongs 172 nM; to `CC[C@@H](C(=O)Nc1cccc2c(-c3nc(Nc4cn(C)nc4OC)ncc3C)c[nH]c12)N1CCN(C)CC1` [Example 43, (2S)-N-(3-{2-[(3-Methoxy-1-methyl-1H-pyrazol-4-yl)amino]-5-methylpyrimidin-4-yl}-1H-indol-7-yl)-2-(4-methylpiperazin-1-yl)butanamide], 176 nM; to `CC[C@H](C(=O)Nc1cccc2c(-c3nc(Nc4cn(C)nc4OC)ncc3C)c[nH]c12)N1CCN(C)CC1` [Example 44, (2R)-N-(3-{2-[(3-Methoxy-1-methyl-1H-pyrazol-4-yl)amino]-5-methylpyrimidin-4-yl}-1H-indol-7-yl)-2-(4-methylpiperazin-1-yl)butanamide], 57.7 nM.
In the case of `COC[C@H](C(=O)Nc1cccc2c(-c3nc(Nc4cn(C)nc4OC)ncc3C)c[nH]c12)N1CCN(C)CC1` [Example 45, (2R)-3-methoxy-N-(3-{2-[(3-methoxy-1-methyl-1H-pyrazol-4-yl)amino]-5-methylpyrimidin-4-yl}-1H-indol-7-yl)-2-(4-methylpiperazin-1-yl)propanamide], the IC50 was determined as 60.3 nM.
Turning to `COC[C@@H](C(=O)Nc1cccc2c(-c3nc(Nc4cn(C)nc4OC)ncc3C)c[nH]c12)N1CCN(C)CC1` [Example 46, (2S)-3-methoxy-N-(3-{2-[(3-methoxy-1-methyl-1H-pyrazol-4-yl)amino]-5-methylpyrimidin-4-yl}-1H-indol-7-yl)-2-(4-methylpiperazin-1-yl)propanamide], the IC50 was 1280 nM.
Consider `CC[C@H](C(=O)Nc1cccc2c(-c3ccnc(Nc4cn(C)nc4OC)n3)c[nH]c12)N1CCN(C)CC1` [Example 47, (2R)-N-(3-{2-[(3-Methoxy-1-methyl-1H-pyrazol-4-yl)amino]pyrimidin-4-yl}-1H-indol-7-yl)-2-(4-methylpiperazin-1-yl)butanamide], for which the IC50 was 136 nM.
To `CC[C@@H](C(=O)Nc1cccc2c(-c3ccnc(Nc4cn(C)nc4OC)n3)c[nH]c12)N1CCN(C)CC1` [Example 48, (2S)-N-(3-{2-[(3-Methoxy-1-methyl-1H-pyrazol-4-yl)amino]pyrimidin-4-yl}-1H-indol-7-yl)-2-(4-methylpiperazin-1-yl)butanamide] belongs 863 nM.
